Measured values reported in ChEMBL document CHEMBL4417631, “Oral peptide inhibitors of interleukin-23 receptor and their use to treat inflammatory bowel diseases” (2017).
*1 amine or outer side, *2 acyl side, *3 side chain or, on linkers, in order; H or OH if unused. Where a SMILES comes first, the peptide text is derived from it. Bridges are numbered along the chain shown (N, C = ends). [ ]: non-standard residue; d: D form. Abu(4-yl) = O=C([C@H](CC[*:3])N[*:1])[*:2]; AEF = NCCOc1ccc(C[C@H](N)C(=O)O)cc1; Tic = O=C(O)[C@@H]1Cc2ccccc2CN1; αMeK = C[C@](N)(CCCCN)C(=O)O; Dap = NC[C@H](N)C(=O)O

Target: T1, Interleukin-23 receptor (Homo sapiens, UniProt Q5VWK5)
T1 sequence (Q5VWK5 whole entry): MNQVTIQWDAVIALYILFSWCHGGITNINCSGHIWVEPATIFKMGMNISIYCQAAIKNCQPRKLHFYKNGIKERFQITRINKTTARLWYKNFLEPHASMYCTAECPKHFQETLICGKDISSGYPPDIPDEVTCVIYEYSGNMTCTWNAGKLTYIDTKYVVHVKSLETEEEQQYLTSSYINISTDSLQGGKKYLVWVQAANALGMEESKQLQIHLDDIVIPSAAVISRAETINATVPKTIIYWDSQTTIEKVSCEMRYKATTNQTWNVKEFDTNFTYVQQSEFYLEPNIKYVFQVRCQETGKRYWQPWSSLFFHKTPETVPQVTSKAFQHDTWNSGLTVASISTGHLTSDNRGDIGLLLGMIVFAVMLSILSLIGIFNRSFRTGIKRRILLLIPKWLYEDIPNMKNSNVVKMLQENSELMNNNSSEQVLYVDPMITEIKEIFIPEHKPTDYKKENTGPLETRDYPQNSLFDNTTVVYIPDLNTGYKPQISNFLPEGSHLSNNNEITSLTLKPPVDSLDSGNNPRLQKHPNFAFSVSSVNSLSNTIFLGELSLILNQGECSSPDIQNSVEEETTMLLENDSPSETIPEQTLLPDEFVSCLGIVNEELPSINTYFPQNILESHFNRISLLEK
Test: Inhibition of interleukin-23 binding to human interleukin-23 receptor incubated for 2 hrs by competitive binding ELISA

Structure (SMILES)	IC50 [µM]
COc1ccc([C@@H]2NC(=O)[C@H]([C@@H](C)O)NC(=O)[C@H](CCC(N)=O)NC(=O)[C@@H](NC(C)=O)CCSC[C@@H](C(=O)N[C@@H](Cc3ccc(OCCN)cc3)C(=O)N[C@@H](Cc3ccc4ccccc4c3)C(=O)N[C@@](C)(CCCCN)C(=O)N[C@@H](CCC(=O)O)C(=O)N[C@@H](CC(N)=O)C(=O)NCC(N)=O)NC(=O)[C@H](CCC(N)=O)NC2=O)cc1	> 3
CC(=O)N[C@@H](CS)C(=O)N[C@@H](C)C(=O)N[C@@H](CC(=O)O)C(=O)N[C@@H](Cc1c[nH]c2ccccc12)C(=O)N[C@H](C(=O)N[C@@H](CS)C(=O)N[C@@H](Cc1ccc(O)cc1)C(=O)N[C@@H](Cc1ccc(C(F)(F)F)cc1)C(=O)N[C@@H](CCCN)C(=O)N[C@@H](CN)C(=O)N[C@@H](Cc1ccccc1)C(=O)NCC(=O)NCCOCC(=O)N[C@H](CCCCN)C(N)=O)C(C)C	> 1
CC(C)[C@H](NC(=O)[C@H](Cc1c[nH]c2ccccc12)NC(=O)[C@H](CC(=O)O)NC(=O)[C@H](CS)NC(=O)[C@H](C)N)C(=O)N[C@@H](CS)C(=O)N[C@@H](Cc1ccc(O)cc1)C(=O)N[C@@H](Cc1c[nH]c2ccccc12)C(=O)N[C@@H](Cc1cnc[nH]1)C(=O)N[C@H](C(=O)N[C@@H](Cc1ccccc1)C(=O)NCC(N)=O)[C@@H](C)O	> 1
CC(C)[C@H](NC(=O)[C@H](Cc1c[nH]c2ccccc12)NC(=O)[C@H](CC(=O)O)NC(=O)[C@H](C)NC(=O)[C@@H](N)CS)C(=O)N[C@@H](CS)C(=O)N[C@@H](Cc1ccc(O)cc1)C(=O)N[C@@H](C)C(=O)N[C@@H](Cc1cnc[nH]1)C(=O)N[C@H](C(=O)N[C@@H](Cc1ccccc1)C(=O)NCC(N)=O)[C@@H](C)O	> 1
CC(=O)NCCCC[C@H](NC(=O)[C@](C)(CCCCN)NC(=O)[C@@H]1Cc2ccccc2CN1C(=O)[C@H](Cc1ccc(OCCN)cc1)NC(=O)[C@@H]1CSCC[C@H](NC(C)=O)C(=O)N[C@@H](CN)C(=O)N[C@@H]([C@@H](C)O)C(=O)N[C@@H](Cc2c[nH]c3ccccc23)C(=O)N[C@@H](CCC(N)=O)C(=O)N1)C(=O)N[C@@H](CC(N)=O)C(=O)NCC(N)=O (Ac-[Abu(4-yl)][Dap]TWQC[AEF][Tic][αMeK]K(Ac)NG-NH2; thioether 1-6)	> 3

Now from value to compound:

IC50 [µM]	Structure (SMILES)
0.5 to 1	CC(=O)NCC(=O)N[C@@H](CC(=O)O)C(=O)N[C@@H](Cc1cnc[nH]1)C(=O)N[C@@H](CCCCN)C(=O)N[C@@H](CS)C(=O)N[C@@H](CO)C(=O)N[C@@H](CO)C(=O)N[C@@H](Cc1c[nH]c2ccccc12)C(=O)N[C@@H](CCC(=O)O)C(=O)N[C@@H](CS)C(=O)N[C@@H](Cc1ccc(O)cc1)C(=O)N[C@@H](Cc1c[nH]c2ccccc12)C(=O)N[C@@H](Cc1cnc[nH]1)C(=O)N[C@H](C(=O)N[C@@H](Cc1ccccc1)C(=O)NCC(N)=O)[C@@H](C)O (Ac-GDHKCSSWECYWHTFG-NH2)
1 to 10	COc1ccc(C[C@H](NC(=O)[C@@H](NC(=O)[C@H](CCC(N)=O)NC(=O)[C@H](Cc2c[nH]c3ccccc23)NC(=O)[C@@H](NC(=O)[C@H](CCC(N)=O)NC(=O)[C@@H](NC(=O)c2cc(O)c(O)c(O)c2)C(C)(C)S)[C@@H](C)O)C(C)(C)S)C(=O)N[C@@H](Cc2ccc3ccccc3c2)C(=O)N[C@@](C)(CCCCN)C(=O)N[C@@H](CCCCNC(C)=O)C(=O)N[C@@H](CC(N)=O)C(=O)NCC(N)=O)cc1
< 0.5	CC(=O)N[C@@H](CS)C(=O)N[C@@H](CCC(N)=O)C(=O)N[C@H](C(=O)N[C@@H](Cc1c[nH]c2ccccc12)C(=O)N[C@@H](CCC(N)=O)C(=O)N[C@@H](CS)C(=O)N[C@@H](Cc1ccc(O)cc1)C(=O)N[C@@H](Cc1c[nH]c2ccccc12)C(=O)N[C@@H](CCCNC(=N)N)C(=O)N[C@H](C(=O)N[C@@H](CC(N)=O)C(=O)NCC(=O)NCCOCC(=O)N[C@H](CCCCN)C(N)=O)[C@@H](C)O)[C@@H](C)O
